# Columns and labels:
# [1] = test system: Haemonchus contortus L3; assay: microbe, parasite or virus in culture; type: cell-based; settings: Haemonchus contortus, 96 h, read-out: HcL3 Minimal Effective Concentration (MEC)
# [2] = test system: D. immitis microfilariae; assay: Dirofilaria immitis, microfilariae (DiMF) in vitro motility assay; type: cell-based; settings: Dirofilaria immitis, 72 h, read-out: DiMF minimally effective dose (MEC)
Structure (SMILES),minimal effective concentration [1] [µM],minimal effective concentration [2] [µM]
"O=C(NCc1ccnc(Cl)c1)n1c2c(c3cc(Cl)ccc31)CN(C/C=C/c1ccc(Cl)c(Cl)c1)CC2 [Example 243, (E)-8-chloro-N-((2-chloropyridin-4-yl)methyl)-2-(3-(3,4-dichlorophenyl)allyl)-1,2,3,4-tetrahydro-5H-pyrido[4,3-b]indole-5-carboxamide]",1.3,10
"O=C(NCc1ccnc(Cl)c1)n1c2c(c3c(Cl)cccc31)CN(C/C=C/c1ccc(Cl)c(Cl)c1)CC2 [Example 216, (E)-9-chloro-N-((2-chloropyridin-4-yl)methyl)-2-(3-(3,4-dichlorophenyl)allyl)-1,2,3,4-tetrahydro-5H-pyrido[4,3-b]indole-5-carboxamide]",1,18.2
"O=C(NCc1ccnc(Cl)c1)n1c2c(c3cc4c(cc31)COC4)CN(C/C=C/c1ccc(C(F)(F)F)cn1)CC2 [Example 474, (E)-N-((2-chloropyridin-4-yl)methyl)-8-(3-(5-(trifluoromethyl)pyridin-2-yl)allyl)-1,3,6,7,8,9-hexahydro-5H-furo[3,4-f]pyrido[4,3-b]indole-5-carboxamide]",0.2,10
"O=C(NCc1ccnc(F)c1)n1c2c(c3ccc(OC(F)(F)F)cc31)CN(C/C=C/c1ccc(F)c(Cl)c1)CC2 [Example 375, (E)-2-(3-(3-chloro-4-fluorophenyl)allyl)-N-((2-fluoropyridin-4-yl)methyl)-7-(trifluoromethoxy)-1,2,3,4-tetrahydro-5H-pyrido[4,3-b]indole-5-carboxamide]",1.8,18.2
"N#Cc1ccc(/C=C/CN2CCc3c(c4c(Br)cccc4n3C(=O)NCc3ccnc(Cl)c3)C2)cc1 [Example 442, (E)-9-bromo-N-((2-chloropyridin-4-yl)methyl)-2-(3-(4-cyanophenyl)allyl)-1,2,3,4-tetrahydro-5H-pyrido[4,3-b]indole-5-carboxamide]",10,10
"O=C(NCc1ccnc(Cl)c1)n1c2c(c3cccc(Cl)c31)CN(C/C=C/c1ccc(C(F)(F)F)cn1)CC2 [Example 266, (E)-6-chloro-N-((2-chloropyridin-4-yl)methyl)-2-(3-(5-(trifluoromethyl)-pyridin-2-yl)allyl)-1,2,3,4-tetrahydro-5H-pyrido[4,3-b]indole-5-carboxamide]",> 100,18.2
"O=C(NCc1ccnc(Cl)c1)n1c2c(c3cc(OC(F)(F)F)ccc31)CN(C/C=C/c1ccc(C(F)(F)F)cc1)CC2 [Example 396, (E)-N-((2-chloropyridin-4-yl)methyl)-8-(trifluoromethoxy)-2-(3-(4-(trifluoro-methyl)phenyl)allyl)-1,2,3,4-tetrahydro-5H-pyrido[4,3-b]indole-5-carboxamide]",3.3,1
"O=C(NCc1ccnc(Cl)c1)n1c2c(c3ccc(Cl)cc31)CN(C/C=C/c1ccc(Cl)c(F)c1)CC2 [Example 205, (E)-7-chloro-2-(3-(4-chloro-3-fluorophenyl)allyl)-N-((2-chloropyridin-4-yl)methyl)-1,2,3,4-tetrahydro-5H-pyrido[4,3-b]indole-5-carboxamide]",1,18.2
"N#Cc1ccc2c3c(n(C(=O)NCc4ccnc(Cl)c4)c2c1)CCN(C/C=C/c1ccc(F)c(Br)c1)C3 [Example 12, (E)-2-(3-(3-bromo-4-fluorophenyl)allyl)-N-((2-chloropyridin-4-yl)methyl)-7-cyano-1,2,3,4-tetrahydro-5H-pyrido[4,3-b]indole-5-carboxamide]",1.8,18.2
"N#Cc1ccc(/C=C/CN2CCc3c(c4cc(C(F)(F)F)ccc4n3C(=O)NCc3ccnc(Cl)c3)C2)cc1 [Example 331, (E)-N-((2-chloropyridin-4-yl)methyl)-2-(3-(4-cyanophenyl)allyl)-8-(trifluoromethyl)-1,2,3,4-tetrahydro-5H-pyrido[4,3-b]indole-5-carboxamide]",0.7,24
"N#Cc1ccc2c(c1)c1c(n2C(=O)NCc2ccnc(F)c2)CCN(C/C=C/c2cc(Br)cs2)C1 [Example 126, (E)-2-(3-(4-bromothiophen-2-yl)allyl)-8-cyano-N-((2-fluoropyridin-4-yl)methyl)-1,2,3,4-tetrahydro-5H-pyrido[4,3-b]indole-5-carboxamide]",> 100,> 100
"O=C(NCc1ccnc(Cl)c1)n1c2c(c3cc(F)c(Cl)cc31)CN(C/C=C/c1cc(F)cc(F)c1)CC2 [Example 302, (E)-7-chloro-N-((2-chloropyridin-4-yl)methyl)-2-(3-(3,5-difluorophenyl)-allyl)-8-fluoro-1,2,3,4-tetrahydro-5H-pyrido[4,3-b]indole-5-carboxamide]",0.3,5.7
"N#Cc1ccc(/C=C/CN2CCc3c(c4c(OC(F)(F)F)cccc4n3C(=O)NCc3ccnc(Cl)c3)C2)cc1 [Example 352, (E)-N-((2-chloropyridin-4-yl)methyl)-2-(3-(4-cyanophenyl)allyl)-9-(trifluoromethoxy)-1,2,3,4-tetrahydro-5H-pyrido[4,3-b]indole-5-carboxamide]",33,5.7
"N#Cc1ccc2c(c1)c1c(n2C(=O)NCc2ccnc(F)c2)CCN(C/C=C/c2ccc(Br)c(F)c2)C1 [Example 105, (E)-2-(3-(4-bromo-3-fluorophenyl)allyl)-8-cyano-N-((2-fluoropyridin-4-yl)methyl)-1,2,3,4-tetrahydro-5H-pyrido[4,3-b]indole-5-carboxamide]",0.3,> 100
"COc1ccc(/C=C/CN2CCc3c(c4cccc(Cl)c4n3C(=O)NCc3ccnc(Cl)c3)C2)cc1 [Example 270, (E)-6-chloro-N-((2-chloropyridin-4-yl)methyl)-2-(3-(4-methoxyphenyl)allyl)-1,2,3,4-tetrahydro-5H-pyrido[4,3-b]indole-5-carboxamide]",> 100,10
"N#Cc1ccc2c(c1)c1c(n2C(=O)NCc2ccnc(F)c2)CCN(C/C=C/c2cc(Cl)c(F)c(Cl)c2)C1 [Example 112, (E)-8-cyano-2-(3-(3,5-dichloro-4-fluorophenyl)allyl)-N-((2-fluoropyridin-4-yl)methyl)-1,2,3,4-tetrahydro-5H-pyrido[4,3-b]indole-5-carboxamide]",0.5,> 100
"COc1cc(CNC(=O)n2c3c(c4cc(C#N)ccc42)CN(C/C=C/c2ccc(F)c(Cl)c2)CC3)ccn1 [Example 68, (E)-2-(3-(3-chloro-4-fluorophenyl)allyl)-8-cyano-N-((2-methoxypyridin-4-yl)methyl)-1,2,3,4-tetrahydro-5H-pyrido[4,3-b]indole-5-carboxamide]",0.01,0.03
"O=C(NCc1ccnc(Cl)c1)n1c2c(c3cc(-n4ccccc4=O)ccc31)CN(C/C=C/c1ccc(Cl)cc1)CC2 [Example 500, (E)-2-(3-(4-chlorophenyl)allyl)-N-((2-chloropyridin-4-yl)methyl)-8-(2-oxopyridin-1 (2H)-yl)-1,2,3,4-tetrahydro-5H-pyrido[4,3-b]indole-5-carboxamide]",> 100,5.7
"O=C(NCc1ccnc(F)c1)n1c2c(c3cc(OC(F)(F)F)ccc31)CN(C/C=C/c1cc(F)c(F)c(F)c1)CC2 [Example 406, (E)-N-((2-fluoropyridin-4-yl)methyl)-8-(trifluoromethoxy)-2-(3-(3,4,5-trifluorophenyl)allyl)-1,2,3,4-tetrahydro-5H-pyrido[4,3-b]indole-5-carboxamide]",0.4,13.5
"N#Cc1ccc(/C=C/CN2CCc3c(c4cc(C(F)(F)F)ccc4n3C(=O)NCc3ccnc(Cl)c3)C2)cc1F [Example 411, (E)-N-((2-chloropyridin-4-yl)methyl)-2-(3-(4-cyano-3-fluorophenyl)allyl)-8-(trifluoromethyl)-1,2,3,4-tetrahydro-5H-pyrido[4,3-b]indole-5-carboxamide]",0.03,1.8
"O=C(NCc1ccnc(Cl)c1)n1c2c(c3cc(OC(F)(F)F)ccc31)CN(C/C=C/c1ccc(F)cc1)CC2 [Example 393, (E)-N-((2-chloropyridin-4-yl)methyl)-2-(3-(4-fluorophenyl)allyl)-8-(trifluoromethoxy)-1,2,3,4-tetrahydro-5H-pyrido[4,3-b]indole-5-carboxamide]",0.4,1.5
"O=C(NCc1ccnc(Cl)c1)n1c2c(c3c(OC(F)(F)F)cccc31)CN(C/C=C/c1ccc(C(F)(F)F)cn1)CC2 [Example 343, (E)-N-((2-chloropyridin-4-yl)methyl)-9-(trifluoromethoxy)-2-(3-(5-(trifluoromethyl)pyridin-2-yl)allyl)-1,2,3,4-tetrahydro-5H-pyrido[4,3-b]indole-5-carboxamide]",33,3.3
"O=C(NCc1ccnc(Cl)c1)n1c2c(c3cc(F)c(Cl)cc31)CN(C/C=C/c1ccc(Cl)c(F)c1)CC2 [Example 297, (E)-7-chloro-2-(3-(4-chloro-3-fluorophenyl)allyl)-N-((2-chloropyridin-4-yl)methyl)-8-fluoro-1,2,3,4-tetrahydro-5H-pyrido[4,3-b]indole-5-carboxamide]",0.3,> 100
"NC(=O)c1ccc2c3c(n(C(=O)NCc4ccnc(Cl)c4)c2c1)CCN(C/C=C/c1ccc(Cl)c(F)c1)C3 [Example 465, (E)-2-(3-(4-chloro-3-fluorophenyl)allyl)-N^5-((2-chloropyridin-4-yl)methyl)-1,2,3,4-tetrahydro-5H-pyrido[4,3-b]indole-5,7-dicarboxamide]",3.3,10

# — patent US10570129B2 (Zoetis Services LLC, priority 2015, dated 2020)
